The subject of one data set is Botrytis cinerea. As to the kind of experiment: Example A: in vivo preventive test on Botrytis cinerea (grey mould). To be noted: gherkin plants, preventive spray, evaluated 4 to 5 days after inoculation. How it is done: The young plants of gherkin are treated by spraying the active ingredient prepared as described above. Control plants are treated only with an aqueous solution of acetone/Dimethyl sulfoxide/Tween®. After 24 hours, the plants are contaminated by spraying the leaves with an aqueous suspension of Botrytis cinerea spores.

In another data set the test system is Puccinia recondita. Description: Example B: in vivo preventive test on Puccinia recondita (brown rust on wheat). The following applies: wheat plants, preventive spray, evaluated 11 days after inoculation. The method, then:
The young plants of wheat are treated by spraying the active ingredient prepared as described above. Control plants are treated only with an aqueous solution of acetone/Dimethyl sulfoxide/Tween®. After 24 hours, the plants are contaminated by spraying the leaves with an aqueous suspension of Puccinia recondita spores.

Another data set relates to Pyrenophora teres. As to the kind of experiment: Example C: in vivo preventive test on Pyrenophora teres (net blotch on barley). To be noted: 500 ppm of active ingredient; barley plants, preventive spray; evaluated 14 days after inoculation. How it is done: The young plants of barley are treated by spraying the active ingredient prepared as described above. Control plants are treated only with an aqueous solution of acetone/Dimethyl sulfoxide/Tween®. After 24 hours, the plants are contaminated by spraying the leaves with an aqueous suspension of Pyrenophora teres spores.

The test system of the next data set is Septoria tritici. As to the kind of experiment: Example D: in vivo preventive test on Septoria tritici (leaf spot on wheat). To be noted: wheat plants, preventive spray, evaluated 24 days after inoculation. How it is done:
The young plants of wheat are treated by spraying the active ingredient prepared as described above. Control plants are treated only with an aqueous solution of acetone/Dimethyl sulfoxide/Tween®. After 24 hours, the plants are contaminated by spraying the leaves with an aqueous suspension of Septoria tritici spores.

For a further data set, the system named is Sphaerotheca fuliginea. As to the kind of experiment: Example E: in vivo preventive test on Sphaerotheca fuliginea (powdery mildew on cucurbits). The following applies: gherkin plants, preventive spray, evaluated 15 days after inoculation. How it is done: The young plants of gherkin are treated by spraying the active ingredient prepared as described above. Control plants are treated only with an aqueous solution of acetone/Dimethyl sulfoxide/Tween®. After 24 hours, the plants are contaminated by spraying the leaves with an aqueous suspension of Sphaerotheca fuliginea spores.

A further data set has as its system Uromyces appendiculatus. As to the kind of experiment: Example F: in vivo preventive test on Uromyces appendiculatus (bean rust). The following applies: bean plants, preventive spray, evaluated 11 days after inoculation. The method, then: The young plants of bean are treated by spraying the active ingredient prepared as described above. Control plants are treated only with an aqueous solution of acetone/Dimethyl sulfoxide/Tween®. After 24 hours, the plants are contaminated by spraying the leaves with an aqueous suspension of Uromyces appendiculatus spores.

For data set [1] the following is noted: pH 2.7.
Data set [2] deals with Blumeria graminis f. sp. hordei. Description: Example G: Blumeria test (barley)/preventive. To be noted: 500 ppm of active ingredient, preventive, evaluated 7 days after inoculation. In kind it is in vivo. The method, then:
(§1) Solvent: 49 parts by weight of N,N-dimethylacetamide Emulsifier: 1 part by weight of alkylaryl polyglycol ether To produce a suitable preparation of active compound, 1 part by weight of active compound or active compound combination is mixed with the stated amounts of solvent and emulsifier, and the concentrate is diluted with water to the desired concentration. To test for preventive activity, young plants are sprayed with the preparation of active compound or active compound combination at the stated rate of application. After the spray coating has been dried, the plants are dusted with spores of Blumeria graminis f. sp. hordei.

Data set [3] concerns Fusarium nivale (var. majus). Description: Example J: Fusarium nivale (var. majus)-test (wheat)/preventive. In kind it is in vivo. The following applies: 500 ppm of active ingredient, preventive, evaluated 5 days after inoculation. How it is done: Solvent: 49 parts by weight of N,N-dimethylacetamide
Emulsifier: 1 part by weight of alkylaryl polyglycol ether
To produce a suitable preparation of active compound, 1 part by weight of active compound or active compound combination is mixed with the stated amounts of solvent and emulsifier, and the concentrate is diluted with water to the desired concentration.
To test for preventive activity, young plants are sprayed with the preparation of active compound or active compound combination at the stated rate of application.
After the spray coating has been dried, the plants are slightly injured by using a sandblast and afterwards they are sprayed with a conidia suspension of Fusarium nivale (var. majus).
The plants are placed in the greenhouse under a translucent incubation cabinet at a temperature of approximately 10° C. and a relative atmospheric humidity of approximately 100%.
The test is evaluated 5 days after the inoculation. 0% means an efficacy which corresponds to that of the untreated control, while an efficacy of 100% means that no disease is observed.

A further data set relates to Leptosphaeria nodorum. As to the kind of experiment: Example K: Leptosphaeria nodorum test (wheat)/preventive. Format: in vivo. To be noted: 500 ppm of active ingredient, preventive, evaluated 8 days after inoculation. How it is done:
as §1, with “sprayed” for “dusted”, “a spore suspension” for “spores”, “Leptosphaeria nodorum.” for “Blumeria graminis f. sp. hordei.”

A further data set concerns Fusarium graminearum. In kind it is in vivo. The following applies: 500 ppm of active ingredient; barley, preventive; evaluated 5 days after inoculation.
A further data set deals with Phakopsora pachyrhizi. As to the kind of experiment: Example L: Phakopsora test (soybeans)/preventive. Format: in vivo. The following applies: 10 ppm of active ingredient, preventive, evaluated 7 days after inoculation.

Molecules are shown by their SMILES. Marks after values point to notes of the source that are not given here.

For `OC(Cc1cc(F)ncc1Cl)(Cn1cncn1)C1(Cl)CC1` (racemic) [Example I-89], the Eff. % with Botrytis cinerea (500 ppm of active ingredient), in the data set with Puccinia recondita (500 ppm of active ingredient), in the data set on Pyrenophora teres, with Septoria tritici (500 ppm of active ingredient), in the data set with Sphaerotheca fuliginea (500 ppm of active ingredient) and with Uromyces appendiculatus (500 ppm of active ingredient) was 100% throughout. In addition, the LogP in data set [1] is 2.30^[a].
Turning to `OC(Cc1ccc(Cl)cn1)(Cn1cncn1)C1(Cl)CC1` (racemic) [Example I-67], the Eff. % with Botrytis cinerea (500 ppm of active ingredient) came out at 99%; in the data set on Puccinia recondita (500 ppm of active ingredient) it was 98%; in the data set with Pyrenophora teres, 86%; in the data set on Septoria tritici (500 ppm of active ingredient), 100%; in the data set with Sphaerotheca fuliginea (500 ppm of active ingredient), 98%; with Uromyces appendiculatus (500 ppm of active ingredient) it was 100%. Further, the LogP in [1] is 2.23^[a].
Turning to `OC(Cc1ccc(Cl)c(Cl)n1)(Cn1cncn1)C1(Cl)CC1` (stereo not drawn) [Example I-31], the Eff. % in the data set with Puccinia recondita (100 ppm of active ingredient) was found to be 83%; in the data set with Septoria tritici (100 ppm of active ingredient), 100%; in the data set on Sphaerotheca fuliginea (100 ppm of active ingredient), 90%; in the data set with Uromyces appendiculatus (100 ppm of active ingredient) it was 94%; in data set [2], 100%; in [3], 75%. In the data set on Leptosphaeria nodorum, the Eff. % was 88%. Besides, the LogP in [1] is 2.66^[a].
On to `CC(CF)(CF)C(O)(Cc1ccnc(Cl)c1)Cn1cncn1` (stereo not drawn) [Example I-36], for which the Eff. % amounted to 97% with Puccinia recondita (500 ppm of active ingredient); 88% in the data set with Pyrenophora teres; 100% in the data set with Septoria tritici (500 ppm of active ingredient); 100% with Sphaerotheca fuliginea (500 ppm of active ingredient); 100% in the data set on Uromyces appendiculatus (500 ppm of active ingredient); 100% in data set [2]. In the data set on Fusarium graminearum, the Eff. % is 94%. Further, the LogP in data set [1] is 1.66^[a].
Take `OC(Cc1cc(Cl)cnc1Cl)(Cn1cncn1)C1(Cl)CC1` (racemic) [Example I-83]: the Eff. % came out at 100% in the data set on Botrytis cinerea (500 ppm of active ingredient); 100% in the data set on Puccinia recondita (500 ppm of active ingredient); 88% in the data set with Pyrenophora teres; 100% in the data set on Septoria tritici (500 ppm of active ingredient); 100% with Sphaerotheca fuliginea (500 ppm of active ingredient); 100% in the data set with Uromyces appendiculatus (500 ppm of active ingredient). Moreover, the LogP in [1] was 2.53^[a].
Take `OC(Cc1nccnc1Cl)(Cn1cncn1)C1(Cl)CC1` (stereo not drawn) [Example I-30]: the Eff. % with Sphaerotheca fuliginea (100 ppm of active ingredient) turned out to be 94%; in the data set with Uromyces appendiculatus (100 ppm of active ingredient) it was 100%; in the data set with Phakopsora pachyrhizi, 75%. In addition, the LogP in data set [1] is 1.86^[a].
As to `OC(Cc1ccnc(Cl)c1)(Cn1cncn1)C1(F)CC1` (stereo not drawn) [Example I-33], the Eff. % with Botrytis cinerea (100 ppm of active ingredient) stood at 94%; with Puccinia recondita (500 ppm of active ingredient), 93%; with Pyrenophora teres it was 75%; in the data set on Septoria tritici (500 ppm of active ingredient), 100%; in the data set on Sphaerotheca fuliginea (500 ppm of active ingredient) it was 100%; in the data set on Uromyces appendiculatus (500 ppm of active ingredient), 100%. Moreover, the Eff. % came out at 100% in data set [2], 100% with Fusarium graminearum, 93% in data set [3] and 86% in the data set on Leptosphaeria nodorum. Also, in data set [1], the LogP is 1.44^[a].
For `OC(Cc1ccncn1)(Cn1cncn1)C1(Cl)CC1` (stereo not drawn) [Example I-50], the Eff. % in the data set on Botrytis cinerea (500 ppm of active ingredient) is on record as 100%; in the data set on Puccinia recondita (500 ppm of active ingredient) it was 94%; in the data set with Pyrenophora teres, 79%; in the data set with Septoria tritici (500 ppm of active ingredient), 100%; with Sphaerotheca fuliginea (500 ppm of active ingredient) it was 100%; with Uromyces appendiculatus (500 ppm of active ingredient), 100%. For the same compound, the LogP in data set [1] was 1.10^[a].
As to `CC(C)(Oc1ccc(Cl)cc1)C(O)(Cc1ccncc1Cl)Cn1cncn1` (racemic) [Example I-70], the Eff. % amounted to 94% in the data set with Puccinia recondita (500 ppm of active ingredient); 100% in the data set on Septoria tritici (500 ppm of active ingredient); 100% with Sphaerotheca fuliginea (500 ppm of active ingredient); 99% in the data set on Uromyces appendiculatus (500 ppm of active ingredient); 100% in [2]; 88% in data set [3]. Also, in the data set with Leptosphaeria nodorum, the Eff. % was determined as 89%. The LogP in data set [1] is 2.84^[a].
For the compound `OC(Cc1ncnc(Cl)c1Cl)(Cn1cncn1)C1(Cl)CC1` (stereo not drawn) [Example I-57], the Eff. % with Puccinia recondita (500 ppm of active ingredient) is given as 86%; in the data set on Pyrenophora teres it was 88%; in the data set on Septoria tritici (500 ppm of active ingredient), 92%; with Sphaerotheca fuliginea (500 ppm of active ingredient), 95%; in the data set with Uromyces appendiculatus (500 ppm of active ingredient) it was 96%; in data set [2] it was 100%. Moreover, in data set [3], the Eff. % was 71%. For the same compound, in [1], the LogP is 2.28^[a].

The values above are taken from US9822099B2, “Triazole derivatives” (priority 2013, dated 2017).
